# Data from patent publication US20250099430A1, “PREVENTION OR TREATMENT OF SLEEP DISORDERS USING DEXMEDETOMIDINE FORMULATION” (BioXcel Therapeutics, Inc., priority 2014, published 2025).
# Values joined by “and” are separate entries in the source; they are usually repeats but may differ in a detail not shown here. Identical values can stand only once. “Also recorded” adds a separate entry of the source.
# Test system: Wistar rats
# Assay: Sleep promoting properties in Wistar rats, video monitoring of home cage activity (total sleep time, latency to sleep, number of sleep episodes)
# Format: in vivo
# Details: for Total Sleep time: 180 min recording
# Procedure: Sublingual dexmedetomidine formulation of present invention was tested in rats for its ability to increase the amount of sleep or decrease sleep interruption or both without undesired effects. Test animals' activity was continuously monitored by using a video camera overhead and data analysed for latency of sleep, total sleep time and number of sleep episodes by using the NoldusEthovision-XT 11.
# Male Wistar rats were approximately of the weight 180 g-220 g and age of about 5-7 weeks old. Animals were numbered and kept in acclimatization for a period of 5-7 days before the initiation of the experiment. All the experiments on animals were conducted in accordance with the guidelines of the Committee for the Purpose of Control and Supervision of Experiments on Animals (CPCSEA), Goveemment of India the Association for Assessment and Accreditation of Laboratory Animal Care intemational (AAALAC).
# Recording Environment: Animals were housed group wise (three animals per cage) within a microisolator cage modified with an inserted polycarbonate filter-top riser to allow more vertical headroom. Animals were maintained on the normal rodent chow ad libitum and given free access to fresh autoclaved potable drinking water. Animals were kept in a controlled environmental condition with 22±3° C. temperature, 50±20% humidity, a light dark cycle of 12 hours each and 15-20 fresh air changes per hour.
# Animal Groups: Wistar rats were randomly divided into different groups, each containing 6 animals. The study groups were divided as normal control group, vehicle control group, test compound groups and reference compound group.
# Animals were weight once at randomization and each day thereafter. The animals were studied from day 1 till day 9. […] On day 3, animals were dosed with test compounds and respiratory parameters such as tidal volume, frequency of respiration: heart rate and blood pressure were recorded. On day 5 and day 6, animals were trained on the rotarod apparatus (4-40 rpm for 300 s). On day 7, animals were administered with test compounds and motor coordination was tested on rotarod at 3, 10, 17, 24 and 30 minutes post administration to establish a temporal scale of loss of motor activity and drowsiness. On day 9, animals were dosed with test compounds and blood was collected at 15, 30, 60 and 120 min post sublingual dosing to estimate plasma drug concentration of dexmedetomidine. All the animals were euthanized by CO2 inhalation on day 9. The animal in the satellite groups was dosed with test compounds and blood was collected on day 0 at 15, 30, 60, and 120 min post sublingual dosing to estimate plasma drug concentration of dexmedetomidine after first drug exposure.
# The normal control group received no treatment: vehicle control group received 0.9% saline water; the test group received compound (dexmedetomidine), administered sublingually in different doses (dose 1-5.14 μg/kg of body weight, dose 2-10 μg/kg of body weight, dose 3-20 μg/kg of body weight, dose 4-30 μg/kg of body weight and dose 5-40 μg/kg of body weight) and also administered parenterally (dose 6-1.5 μg kg of body weight); and the reference compound (Zolpidem) was administered orally in dose of 30 mg/kg of body weight. The treatment was given such that no rat received the same treatment twice.
# Total sleep time, latency to sleep and number of sleep episodes were measured: After administration of each dose to each group of animal, the latency to sleep, total sleep time and sleep episodes was recorded.
# One way ANOVA test was applied for the comparison of the data from different groups for total sleep time, latency to sleep and number of sleep episodes.
# [1] = Table 2, Dose 1 (5.14 μg/kg, SL)
# [2] = Table 2, Dose 6 (1.5 μg/kg, I.V.)
# [3] = group mean, Dose 1 (5.14 μg/kg Dexmedetomidine SL)
# [4] = group mean, Dose 2 (10 μg/kg Dexmedetomidine SL)
# [5] = group mean, Dose 3 (20 μg/kg Dexmedetomidine SL)
# [6] = group mean, Dose 4 (30 μg/kg Dexmedetomidine SL)
# [7] = group mean, Dose 5 (40 μg/kg Dexmedetomidine SL)
# [8] = group mean, Dose 6 (1.5 μg/kg Dexmedetomidine I.V.)
# [9] = individual animals, Dose 1 (5.14 μg/kg Dexmedetomidine SL)
# [10] = individual animals, Dose 2 (10 μg/kg Dexmedetomidine SL)
# [11] = individual animals, Dose 3 (20 μg/kg Dexmedetomidine SL)
# [12] = individual animals, Dose 4 (30 μg/kg Dexmedetomidine SL)
# [13] = individual animals, Dose 5 (40 μg/kg Dexmedetomidine SL)
# [14] = individual animals, Dose 6 (1.5 μg/kg Dexmedetomidine I.V.)
# [15] = parenteral dexmedetomidine (1.5 μg/kg, p.o.), compared to vehicle control
# [16] = Table 2, Zolpidem (30 mg/kg, p.o.)
# [17] = group mean, Zolpidem (30 mg/kg), orally
# [18] = individual animals, Zolpidem (30 mg/kg), orally
structure (smiles),measurement,setting,value
"Cc1cccc([C@H](C)c2cnc[nH]2)c1C [Dexmedetomidine, 5-[(1 S)-1-(2,3-dimethylphenyl)ethyl]-1 H-imidazole]",Latency to Sleep (Mean and SEM),[1],63.2
same,Number of Sleep Episodes (Mean and SEM),[1],2.33
same,Total Sleep Time (Mean and SEM),[1],100.7
same,Latency to Sleep (Mean and SEM),"Table 2, Dose 2 (10 μg/kg, SL)",21.0
same,Number of Sleep Episodes (Mean and SEM),"Table 2, Dose 2 (10 μg/kg, SL)",4.50
same,Total Sleep Time (Mean and SEM),"Table 2, Dose 2 (10 μg/kg, SL)",130.1
same,Latency to Sleep (Mean and SEM),"Table 2, Dose 3 (20 μg/kg, SL)",12.7
same,Number of Sleep Episodes (Mean and SEM),"Table 2, Dose 3 (20 μg/kg, SL)",4.00
same,Total Sleep Time (Mean and SEM),"Table 2, Dose 3 (20 μg/kg, SL)",150.2
same,Latency to Sleep (Mean and SEM),"Table 2, Dose 4 (30 μg/kg, SL)",13.2
same,Number of Sleep Episodes (Mean and SEM),"Table 2, Dose 4 (30 μg/kg, SL)",2.50
same,Total Sleep Time (Mean and SEM),"Table 2, Dose 4 (30 μg/kg, SL)",143.1
same,Latency to Sleep (Mean and SEM),"Table 2, Dose 5 (40 μg/kg, SL)",16.7
same,Number of Sleep Episodes (Mean and SEM),"Table 2, Dose 5 (40 μg/kg, SL)",2.67
same,Total Sleep Time (Mean and SEM),"Table 2, Dose 5 (40 μg/kg, SL)",169.7
same,Latency to Sleep (Mean and SEM),[2],25.4
same,Number of Sleep Episodes (Mean and SEM),[2],2.33
same,Total Sleep Time (Mean and SEM),[2],137
same,"Latency to Sleep (Time of sleep onset), result in words","dexmedetomidine dosed sublingually at 10, 20, 30 & 40 μg/kg, compared to vehicle control",significantly lowered; also recorded: significantly reduced
same,"Number of sleep episodes, result in words","dexmedetomidine dosed sublingually, from 10, 20, 30 & 40 μg/kg, compared to vehicle control",gradually decreased
same,Latency to Sleep,[3],63.17
same,Number of Sleep Episodes,[3],2.33
same,Total Sleep time Normalized to Vehicle*,[3],100.71
same,Total Sleep time,[3],47.67 min
same,Latency to Sleep,[4],21.00
same,Number of Sleep Episodes,[4],4.50
same,Total Sleep time Normalized to Vehicle*,[4],130.13
same,Total Sleep time,[4],103.67 min
same,Latency to Sleep,[5],12.67
same,Number of Sleep Episodes,[5],4.00
same,Total Sleep time Normalized to Vehicle*,[5],150.21
same,Total Sleep time,[5],119.67 min
same,Latency to Sleep,[6],13.17
same,Number of Sleep Episodes,[6],2.50
same,Total Sleep time Normalized to Vehicle*,[6],143.10
same,Total Sleep time,[6],114.00 min
same,Latency to Sleep,[7],16.67
same,Number of Sleep Episodes,[7],2.67
same,Total Sleep time Normalized to Vehicle*,[7],169.67
same,Total Sleep time,[7],135.17 min
same,Latency to Sleep,[8],25.40
same,Number of Sleep Episodes,[8],2.33
same,Total Sleep time Normalized to Vehicle*,[8],136.98
same,Total Sleep time,[8],64.83 min
same,Latency to Sleep,[9],97 and 101 and 87 and 94 and 0 (2×)
same,Number of Sleep Episodes,[9],2 (2×) and 5 (2×) and 0 (2×)
same,Total Sleep time Normalized to Vehicle*,[9],184 and 203 and 125 and 93 and 0 (2×)
same,Total Sleep time,[9],87 min and 96 min and 59 min and 44 min and 0 min (2×)
same,Latency to Sleep,[10],18 (2×) and 29 and 21 and 24 and 16
same,Number of Sleep Episodes,[10],5 (4×) and 4 and 3
same,Total Sleep time Normalized to Vehicle*,[10],128 and 102 and 108 and 141 and 152 and 151
same,Total Sleep time,[10],102 min and 81 min and 86 min and 112 min and 121 min and 120 min
same,Latency to Sleep,[11],15 (2×) and 12 and 13 and 10 and 11
same,Number of Sleep Episodes,[11],5 and 3 and 4 (4×)
same,Total Sleep time Normalized to Vehicle*,[11],133 and 174 and 143 and 142 and 181 and 128
same,Total Sleep time,[11],106 min and 139 min and 114 min and 113 min and 144 min and 102 min
same,Latency to Sleep,[12],11 (2×) and 23 and 8 and 10 and 16
same,Number of Sleep Episodes,[12],4 and 2 (4×) and 3
same,Total Sleep time Normalized to Vehicle*,[12],162 and 127 and 158 (2×) and 136 and 118
same,Total Sleep time,[12],129 min and 101 min and 126 min (2×) and 108 min and 94 min
same,Latency to Sleep,[13],16 (2×) and 17 and 18 and 13 and 20
same,Number of Sleep Episodes,[13],2 (3×) and 4 and 3 (2×)
same,Total Sleep time Normalized to Vehicle*,[13],181 and 134 and 186 and 190 and 159 and 168
same,Total Sleep time,[13],144 min and 107 min and 148 min and 151 min and 127 min and 134 min
same,Latency to Sleep,[14],18 and 27 and 26 and 24 and 85 and 32
same,Number of Sleep Episodes,[14],3 (3×) and 1 and 2 (2×)
same,Total Sleep time Normalized to Vehicle*,[14],180 and 184 and 95 and 129 and 177 and 57
same,Total Sleep time,[14],85 min and 87 min and 45 min and 61 min and 84 min and 27 min
same,"Latency to Sleep (Time of sleep onset), result in words",[15],significantly lowered
same,"Number of sleep episodes, result in words",[15],gradually decreased
same,"Total sleep time, result in words",sublingual dexmedetomidine at dose range of 10 to 40 μg/kg,no significant increase; also recorded: not significantly affecting
same,"Total Sleep Time (total duration of sleep in 180 min.), result in words","sublingual dexmedetomidine, 40 μg/kg",significant increase
Cc1ccc(-c2nc3ccc(C)cn3c2CC(=O)N(C)C)cc1 [Zolpidem],Latency to Sleep (Mean and SEM),[16],27.0
same,Number of Sleep Episodes (Mean and SEM),[16],3.83
same,Total sleep time normalized to vehicle,[16],183.8
same,"Total Sleep Time (total duration of sleep in 180 min.), result in words","Zolpidem at the standard dose, compared to NC and Vehicle control",significant increase
same,"Latency to Sleep (Time of sleep onset), result in words","Zolpidem, compared to normal and vehicle control",reduction in the sleep latency
same,Latency to Sleep,[17],27.00
same,Number of Sleep Episodes,[17],3.83
same,Total Sleep time Normalized to Vehicle*,[17],183.82
same,Total Sleep time,[17],87.00 min
same,Latency to Sleep,[18],24 (2×) and 28 and 26 and 23 and 37
same,Number of Sleep Episodes,[18],3 (3×) and 6 and 4 (2×)
same,Total Sleep time Normalized to Vehicle*,[18],247 and 260 and 167 and 205 and 114 and 110
same,Total Sleep time,[18],117 min and 123 min and 79 min and 97 min and 54 min and 52 min
